Reference: ChEMBL document CHEMBL5058645, “Data for DCP probe JNJ-6204” (2022)

What was measured:
[1] = molecular target: Mitogen-activated protein kinase 14 (Homo sapiens, UniProt Q16539); experiment: SAPK2a(h) Kinase panel; details: Compound concentration 1.0 uM, tested as the 2H-labelled form
[2] = molecular target: Cyclin-dependent kinase-like 4 (Homo sapiens) (UniProt Q5MAI5); experiment: CDKL4(h) Kinase panel; details: Compound concentration 1.0 uM, tested as the 2H-labelled form
[3] = molecular target: 5-hydroxytryptamine receptor 1E (Homo sapiens) (UniProt P28566); details: Compound concentration 10.0 uM, tested as the 2H-labelled form
Chain of 5-hydroxytryptamine receptor 1E (Homo sapiens) (P28566 whole entry): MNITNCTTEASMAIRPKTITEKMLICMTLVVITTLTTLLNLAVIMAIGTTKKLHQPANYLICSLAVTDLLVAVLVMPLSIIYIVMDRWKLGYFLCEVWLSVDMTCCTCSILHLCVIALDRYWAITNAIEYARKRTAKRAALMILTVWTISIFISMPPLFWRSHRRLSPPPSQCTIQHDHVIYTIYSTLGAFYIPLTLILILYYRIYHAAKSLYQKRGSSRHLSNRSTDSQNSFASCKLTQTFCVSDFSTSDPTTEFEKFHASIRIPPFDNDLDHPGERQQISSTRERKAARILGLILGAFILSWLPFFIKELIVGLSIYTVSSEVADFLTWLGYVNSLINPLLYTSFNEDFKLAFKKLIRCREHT

[4] = molecular target: Serine/threonine-protein kinase WNK2 (Homo sapiens) (UniProt Q9Y3S1); experiment: WNK2(h) Kinase panel; details: Compound concentration 1.0 uM, tested as the 2H-labelled form
[5] = molecular target: Casein kinase I isoform alpha (Homo sapiens, UniProt P48729); experiment: CK1alpha(h) Kinase panel; details: Compound concentration 1.0 uM, tested as the 2H-labelled form
[6] = molecular target: 5-hydroxytryptamine receptor 6 (Homo sapiens) (UniProt P50406); details: Compound concentration 10.0 uM, tested as the 2H-labelled form
[7] = molecular target: Transient receptor potential cation channel subfamily M member 7 (Homo sapiens) (UniProt Q96QT4); experiment: ChaK1(h) Kinase panel; details: Compound concentration 1.0 uM, tested as the 2H-labelled form
[8] = molecular target: Serine/threonine-protein kinase Sgk1 (Homo sapiens) (UniProt O00141); experiment: SGK(h) Kinase panel; details: Compound concentration 1.0 uM, tested as the 2H-labelled form
[9] = molecular target: Ribosomal protein S6 kinase alpha-3 (Homo sapiens) (UniProt P51812); experiment: Rsk2(h) Kinase panel; details: Compound concentration 1.0 uM, tested as the 2H-labelled form
Chain of Ribosomal protein S6 kinase alpha-3 (Homo sapiens) (P51812 whole entry): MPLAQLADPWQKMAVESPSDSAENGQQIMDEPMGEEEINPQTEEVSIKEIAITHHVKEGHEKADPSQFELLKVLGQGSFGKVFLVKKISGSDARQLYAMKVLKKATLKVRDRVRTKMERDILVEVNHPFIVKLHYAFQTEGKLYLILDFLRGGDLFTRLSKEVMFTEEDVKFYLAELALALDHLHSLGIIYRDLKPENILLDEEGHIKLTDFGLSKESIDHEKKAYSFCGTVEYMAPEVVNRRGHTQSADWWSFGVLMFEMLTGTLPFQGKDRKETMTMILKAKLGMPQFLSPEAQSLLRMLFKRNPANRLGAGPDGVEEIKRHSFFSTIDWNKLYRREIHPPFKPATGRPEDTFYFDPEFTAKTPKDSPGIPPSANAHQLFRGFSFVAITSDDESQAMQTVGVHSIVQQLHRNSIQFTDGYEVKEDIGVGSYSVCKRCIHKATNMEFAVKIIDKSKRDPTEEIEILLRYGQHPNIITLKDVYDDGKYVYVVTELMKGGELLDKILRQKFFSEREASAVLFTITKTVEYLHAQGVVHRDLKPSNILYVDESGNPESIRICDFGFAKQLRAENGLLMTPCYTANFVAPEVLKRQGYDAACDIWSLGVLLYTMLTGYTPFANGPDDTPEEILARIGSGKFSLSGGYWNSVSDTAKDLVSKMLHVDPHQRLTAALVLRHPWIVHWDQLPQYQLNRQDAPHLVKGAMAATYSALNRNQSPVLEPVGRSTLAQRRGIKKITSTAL

[10] = molecular target: NT-3 growth factor receptor (Homo sapiens) (UniProt Q16288); experiment: TrkC(h) Kinase panel; details: Compound concentration 1.0 uM, tested as the 2H-labelled form
[11] = molecular target: 5'-AMP-activated protein kinase catalytic subunit alpha-1 (Homo sapiens) (UniProt Q13131); experiment: AMPKalpha1(h) Kinase panel; details: Compound concentration 1.0 uM, tested as the 2H-labelled form
[12] = molecular target: Protein kinase C beta type (Homo sapiens) (UniProt P05771); experiment: PKCbetaI (h) Kinase panel; details: Compound concentration 1.0 uM, tested as the 2H-labelled form
[13] = molecular target: Non-receptor tyrosine-protein kinase TYK2 (Homo sapiens) (UniProt P29597); experiment: TYK2(h) Kinase panel; details: Compound concentration 1.0 uM, tested as the 2H-labelled form
[14] = molecular target: Tyrosine-protein kinase TXK (Homo sapiens) (UniProt P42681); experiment: Txk(h) Kinase panel; details: Compound concentration 1.0 uM, tested as the 2H-labelled form
[15] = molecular target: [Pyruvate dehydrogenase (acetyl-transferring)] kinase isozyme 4, mitochondrial (Homo sapiens) (UniProt Q16654); experiment: PDHK4(h) Kinase panel; details: Compound concentration 1.0 uM, tested as the 2H-labelled form
[16] = molecular target: Dual specificity mitogen-activated protein kinase kinase 2 (Homo sapiens) (UniProt P36507); experiment: MEK2(h) Kinase panel; details: Compound concentration 1.0 uM, tested as the 2H-labelled form
[17] = molecular target: Testis-specific serine/threonine-protein kinase 4 (Homo sapiens) (UniProt Q6SA08); experiment: TSSK4(h) Kinase panel; details: Compound concentration 1.0 uM, tested as the 2H-labelled form
[18] = molecular target: Serine/threonine-protein kinase 16 (Homo sapiens) (UniProt O75716); experiment: STK16(h) Kinase panel; details: Compound concentration 1.0 uM, tested as the 2H-labelled form
[19] = molecular target: Serine/threonine-protein kinase A-Raf (Homo sapiens) (UniProt P10398); experiment: A-Raf(h) Kinase panel; details: Compound concentration 1.0 uM, tested as the 2H-labelled form
Chain of Serine/threonine-protein kinase A-Raf (Homo sapiens) (P10398 whole entry): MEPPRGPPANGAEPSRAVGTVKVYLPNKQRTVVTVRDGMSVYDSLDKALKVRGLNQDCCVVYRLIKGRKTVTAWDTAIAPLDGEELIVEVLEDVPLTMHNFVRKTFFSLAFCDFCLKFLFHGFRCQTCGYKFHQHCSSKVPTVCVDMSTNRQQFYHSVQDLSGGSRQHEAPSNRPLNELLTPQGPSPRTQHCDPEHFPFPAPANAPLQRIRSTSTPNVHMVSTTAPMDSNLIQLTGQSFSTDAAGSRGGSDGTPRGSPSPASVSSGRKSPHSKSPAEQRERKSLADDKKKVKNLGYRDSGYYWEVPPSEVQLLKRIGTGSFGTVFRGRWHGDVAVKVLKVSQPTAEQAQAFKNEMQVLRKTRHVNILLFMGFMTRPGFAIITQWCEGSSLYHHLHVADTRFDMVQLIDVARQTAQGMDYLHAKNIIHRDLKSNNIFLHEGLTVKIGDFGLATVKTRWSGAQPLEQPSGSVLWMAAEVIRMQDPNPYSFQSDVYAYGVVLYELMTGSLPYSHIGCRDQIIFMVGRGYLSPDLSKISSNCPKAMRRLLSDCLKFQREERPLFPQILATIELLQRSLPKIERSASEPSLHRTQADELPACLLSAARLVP

[20] = molecular target: Calcium/calmodulin-dependent protein kinase type 1D (Homo sapiens) (UniProt Q8IU85); experiment: CaMKIdelta(h) Kinase panel; details: Compound concentration 1.0 uM, tested as the 2H-labelled form
Chain of Calcium/calmodulin-dependent protein kinase type 1D (Homo sapiens) (Q8IU85 whole entry, looked up): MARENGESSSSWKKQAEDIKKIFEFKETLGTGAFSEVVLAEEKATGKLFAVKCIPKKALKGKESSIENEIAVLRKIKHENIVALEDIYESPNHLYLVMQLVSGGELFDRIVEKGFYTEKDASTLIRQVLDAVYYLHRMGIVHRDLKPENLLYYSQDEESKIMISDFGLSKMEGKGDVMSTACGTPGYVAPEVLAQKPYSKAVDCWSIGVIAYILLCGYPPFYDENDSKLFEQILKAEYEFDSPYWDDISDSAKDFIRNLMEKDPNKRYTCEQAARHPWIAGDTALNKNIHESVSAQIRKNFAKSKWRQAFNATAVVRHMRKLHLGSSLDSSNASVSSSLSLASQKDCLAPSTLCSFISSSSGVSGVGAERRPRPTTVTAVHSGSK

[21] = molecular target: Receptor-interacting serine/threonine-protein kinase 2 (Homo sapiens) (UniProt O43353); experiment: RIPK2(h) Kinase panel; details: Compound concentration 1.0 uM, tested as the 2H-labelled form
[22] = molecular target: Sigma non-opioid intracellular receptor 1 (Homo sapiens) (UniProt Q99720); details: Compound concentration 10.0 uM, tested as the 2H-labelled form
[23] = molecular target: Cyclin-dependent kinase-like 3 (Homo sapiens) (UniProt Q8IVW4); experiment: CDKL3(h) Kinase panel; details: Compound concentration 1.0 uM, tested as the 2H-labelled form
[24] = molecular target: Serine/threonine-protein kinase LATS2 (Homo sapiens) (UniProt Q9NRM7); experiment: LATS2(h) Kinase panel; details: Compound concentration 1.0 uM, tested as the 2H-labelled form
Chain of Serine/threonine-protein kinase LATS2 (Homo sapiens) (Q9NRM7 whole entry): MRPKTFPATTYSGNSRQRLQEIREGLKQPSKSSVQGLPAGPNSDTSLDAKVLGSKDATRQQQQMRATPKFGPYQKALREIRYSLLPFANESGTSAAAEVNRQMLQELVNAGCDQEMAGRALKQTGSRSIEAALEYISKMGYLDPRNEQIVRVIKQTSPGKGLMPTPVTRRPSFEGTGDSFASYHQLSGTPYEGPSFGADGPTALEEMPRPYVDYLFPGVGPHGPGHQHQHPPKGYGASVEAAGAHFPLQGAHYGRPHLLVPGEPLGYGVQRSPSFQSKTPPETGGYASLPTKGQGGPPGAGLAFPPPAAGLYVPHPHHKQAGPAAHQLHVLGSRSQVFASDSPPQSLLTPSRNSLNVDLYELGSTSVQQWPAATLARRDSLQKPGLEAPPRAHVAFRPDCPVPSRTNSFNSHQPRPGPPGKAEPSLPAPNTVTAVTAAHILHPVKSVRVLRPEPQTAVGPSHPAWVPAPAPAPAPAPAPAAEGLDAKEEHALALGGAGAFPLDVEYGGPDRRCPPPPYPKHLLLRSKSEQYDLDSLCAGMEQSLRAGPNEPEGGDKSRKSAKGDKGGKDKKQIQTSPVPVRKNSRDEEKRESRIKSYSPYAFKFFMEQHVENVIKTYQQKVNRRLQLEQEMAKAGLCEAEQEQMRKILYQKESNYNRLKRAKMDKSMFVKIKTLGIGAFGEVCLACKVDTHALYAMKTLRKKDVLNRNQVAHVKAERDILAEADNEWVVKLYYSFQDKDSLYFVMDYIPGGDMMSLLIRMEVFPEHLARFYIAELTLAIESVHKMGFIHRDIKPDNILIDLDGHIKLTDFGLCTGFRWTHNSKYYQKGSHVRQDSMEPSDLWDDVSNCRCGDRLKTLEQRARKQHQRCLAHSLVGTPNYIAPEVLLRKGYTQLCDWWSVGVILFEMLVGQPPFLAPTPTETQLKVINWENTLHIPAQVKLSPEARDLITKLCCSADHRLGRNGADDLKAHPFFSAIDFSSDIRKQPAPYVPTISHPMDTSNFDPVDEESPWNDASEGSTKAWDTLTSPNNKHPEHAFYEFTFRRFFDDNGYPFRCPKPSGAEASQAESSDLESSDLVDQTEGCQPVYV

[25] = molecular target: Cyclin-dependent kinase 13 (Homo sapiens) (UniProt Q14004); experiment: CDK13/cyclinK(h) Kinase panel; details: Compound concentration 1.0 uM, tested as the 2H-labelled form
[26] = molecular target: Mitogen-activated protein kinase 9 (Homo sapiens) (UniProt P45984); experiment: JNK2alpha2(h) Kinase panel; details: Compound concentration 1.0 uM, tested as the 2H-labelled form
[27] = molecular target: MAP kinase-activated protein kinase 2 (Homo sapiens) (UniProt P49137); experiment: MAPKAP-K2(h) Kinase panel; details: Compound concentration 1.0 uM, tested as the 2H-labelled form
[28] = molecular target: Casein kinase I isoform gamma-1 (Homo sapiens) (UniProt Q9HCP0); experiment: CK1gamma1(h) Kinase panel; details: Compound concentration 1.0 uM, tested as the 2H-labelled form
[29] = molecular target: Protein kinase C zeta type (Homo sapiens) (UniProt Q05513); experiment: PKCzeta(h) Kinase panel; details: Compound concentration 1.0 uM, tested as the 2H-labelled form
[30] = molecular target: Serine/threonine-protein kinase LATS1 (Homo sapiens) (UniProt O95835); experiment: LATS1(h) Kinase panel; details: Compound concentration 1.0 uM, tested as the 2H-labelled form
[31] = molecular target: Protein-tyrosine kinase 2-beta (Homo sapiens) (UniProt Q14289); experiment: Pyk2(h) Kinase panel; details: Compound concentration 1.0 uM, tested as the 2H-labelled form
[32] = molecular target: Angiopoietin-1 receptor (Homo sapiens) (UniProt Q02763); experiment: Tie2 (h) Kinase panel; details: Compound concentration 1.0 uM, tested as the 2H-labelled form
[33] = molecular target: Serine/threonine-protein kinase D1 (Homo sapiens) (UniProt Q15139); experiment: PKCmu (h) Kinase panel; details: Compound concentration 1.0 uM, tested as the 2H-labelled form
[34] = molecular target: Calcium/calmodulin-dependent protein kinase type II subunit gamma (Homo sapiens) (UniProt Q13555); experiment: CaMKIIgamma(h) Kinase panel; details: Compound concentration 1.0 uM, tested as the 2H-labelled form
[35] = molecular target: Tyrosine-protein kinase HCK (Homo sapiens) (UniProt P08631); experiment: Hck(h) activated Kinase panel; details: Compound concentration 1.0 uM, tested as the 2H-labelled form
Chain of Tyrosine-protein kinase HCK (Homo sapiens) (P08631 2-526 limits assumed): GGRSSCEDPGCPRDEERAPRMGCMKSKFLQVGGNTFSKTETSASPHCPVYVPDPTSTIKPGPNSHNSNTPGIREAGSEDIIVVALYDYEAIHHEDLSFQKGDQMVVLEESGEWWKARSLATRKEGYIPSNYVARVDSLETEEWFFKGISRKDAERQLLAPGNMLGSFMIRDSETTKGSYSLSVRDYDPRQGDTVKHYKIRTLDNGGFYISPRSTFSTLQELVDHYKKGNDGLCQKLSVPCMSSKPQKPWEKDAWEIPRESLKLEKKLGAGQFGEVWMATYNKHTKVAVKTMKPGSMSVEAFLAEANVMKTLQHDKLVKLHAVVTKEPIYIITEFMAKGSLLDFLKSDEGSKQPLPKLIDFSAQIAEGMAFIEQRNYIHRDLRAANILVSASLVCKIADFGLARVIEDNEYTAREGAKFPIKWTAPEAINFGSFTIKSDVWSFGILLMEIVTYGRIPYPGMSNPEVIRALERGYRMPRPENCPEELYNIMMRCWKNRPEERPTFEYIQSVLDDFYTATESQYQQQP

[36] = molecular target: RAC-gamma serine/threonine-protein kinase (Homo sapiens) (UniProt Q9Y243); experiment: PKBgamma (h) Kinase panel; details: Compound concentration 1.0 uM, tested as the 2H-labelled form
[37] = molecular target: Serine/threonine-protein kinase 33 (Homo sapiens) (UniProt Q9BYT3); experiment: STK33(h) Kinase panel; details: Compound concentration 1.0 uM, tested as the 2H-labelled form
[38] = molecular target: 3-phosphoinositide-dependent protein kinase 1 (Homo sapiens) (UniProt O15530); experiment: PDK1(h) Kinase panel; details: Compound concentration 1.0 uM, tested as the 2H-labelled form
Chain of 3-phosphoinositide-dependent protein kinase 1 (Homo sapiens) (O15530 whole entry, looked up): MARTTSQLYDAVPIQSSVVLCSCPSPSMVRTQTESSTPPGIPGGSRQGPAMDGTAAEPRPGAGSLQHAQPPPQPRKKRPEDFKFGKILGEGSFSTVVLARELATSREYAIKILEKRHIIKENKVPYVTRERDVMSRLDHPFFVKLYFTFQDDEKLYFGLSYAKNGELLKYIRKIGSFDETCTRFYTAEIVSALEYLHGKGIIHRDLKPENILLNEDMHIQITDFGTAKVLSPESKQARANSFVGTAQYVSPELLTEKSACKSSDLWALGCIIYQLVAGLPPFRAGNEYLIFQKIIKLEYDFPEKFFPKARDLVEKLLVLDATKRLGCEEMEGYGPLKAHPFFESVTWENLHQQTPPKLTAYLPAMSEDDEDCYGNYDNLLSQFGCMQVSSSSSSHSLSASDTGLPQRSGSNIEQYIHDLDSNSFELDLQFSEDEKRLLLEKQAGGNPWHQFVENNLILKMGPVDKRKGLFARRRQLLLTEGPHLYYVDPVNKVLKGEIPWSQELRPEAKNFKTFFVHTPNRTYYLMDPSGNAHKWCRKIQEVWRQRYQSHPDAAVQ

[39] = molecular target: 5-hydroxytryptamine receptor 2A (Homo sapiens) (UniProt P28223); details: Compound concentration 10.0 uM, tested as the 2H-labelled form
[40] = molecular target: Cyclin-dependent kinase 4 (Homo sapiens) (UniProt P11802); experiment: CDK4/cyclinD3(h) Kinase panel; details: Compound concentration 1.0 uM, tested as the 2H-labelled form
[41] = molecular target: Rhodopsin kinase GRK7 (Homo sapiens) (UniProt Q8WTQ7); experiment: GRK7(h) Kinase panel; details: Compound concentration 1.0 uM, tested as the 2H-labelled form
[42] = molecular target: Serine/threonine-protein kinase PAK 5 (Homo sapiens) (UniProt Q9P286); experiment: PAK5(h) Kinase panel; details: Compound concentration 1.0 uM, tested as the 2H-labelled form
[43] = molecular target: Serine/threonine-protein kinase D3 (Homo sapiens) (UniProt O94806); experiment: PKD3(h) Kinase panel; details: Compound concentration 1.0 uM, tested as the 2H-labelled form
[44] = molecular target: Serine/threonine-protein kinase WNK4 (Homo sapiens) (UniProt Q96J92); experiment: WNK4(h) Kinase panel; details: Compound concentration 1.0 uM, tested as the 2H-labelled form
[45] = molecular target: SRSF protein kinase 1 (Homo sapiens) (UniProt Q96SB4); experiment: SRPK1(h) Kinase panel; details: Compound concentration 1.0 uM, tested as the 2H-labelled form
Chain of SRSF protein kinase 1 (Homo sapiens) (Q96SB4 whole entry, canonical isoform): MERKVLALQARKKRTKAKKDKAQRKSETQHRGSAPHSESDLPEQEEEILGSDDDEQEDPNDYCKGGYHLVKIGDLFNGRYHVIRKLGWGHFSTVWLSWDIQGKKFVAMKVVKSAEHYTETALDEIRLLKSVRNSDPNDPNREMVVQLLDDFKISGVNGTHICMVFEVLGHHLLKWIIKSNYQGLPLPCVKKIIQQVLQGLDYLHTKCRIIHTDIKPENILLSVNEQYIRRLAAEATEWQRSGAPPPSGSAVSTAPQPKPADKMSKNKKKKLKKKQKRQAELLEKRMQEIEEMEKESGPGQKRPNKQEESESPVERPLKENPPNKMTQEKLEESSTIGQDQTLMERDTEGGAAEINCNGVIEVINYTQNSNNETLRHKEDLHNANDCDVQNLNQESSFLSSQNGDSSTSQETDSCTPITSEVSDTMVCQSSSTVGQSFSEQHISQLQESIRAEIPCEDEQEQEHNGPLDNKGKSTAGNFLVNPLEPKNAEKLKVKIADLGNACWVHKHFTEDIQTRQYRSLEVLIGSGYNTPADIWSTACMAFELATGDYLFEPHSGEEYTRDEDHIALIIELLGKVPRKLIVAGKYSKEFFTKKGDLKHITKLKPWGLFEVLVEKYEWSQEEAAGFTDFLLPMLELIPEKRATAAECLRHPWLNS

[46] = molecular target: Casein kinase I isoform delta (Homo sapiens, UniProt P48730); details: Compound concentration 1.0 uM
[47] = molecular target: Alpha-1A adrenergic receptor (Homo sapiens) (UniProt P35348); details: Compound concentration 10.0 uM, tested as the 2H-labelled form
[48] = molecular target: Proto-oncogene tyrosine-protein kinase ROS (Homo sapiens) (UniProt P08922); experiment: Ros(h) Kinase panel; details: Compound concentration 1.0 uM, tested as the 2H-labelled form
[49] = molecular target: Serine/threonine-protein kinase OSR1 (Homo sapiens) (UniProt O95747); experiment: OSR1(h) Kinase panel; details: Compound concentration 1.0 uM, tested as the 2H-labelled form
[50] = molecular target: Serine/threonine-protein kinase ICK (Homo sapiens) (UniProt Q9UPZ9); experiment: ICK(h) Kinase panel; details: Compound concentration 1.0 uM, tested as the 2H-labelled form
[51] = molecular target: Kappa-type opioid receptor (Homo sapiens) (UniProt P41145); details: Compound concentration 10.0 uM, tested as the 2H-labelled form

Measured: inhibition

CC1(C)Cn2nc(-c3ccc(F)cn3)c(-c3ccnc4[nH]ncc34)c2CO1
inactive: [1] 12% | [2] 9% | [3] 2.51% | [4] 8% | [5] 73% | [6] -1.55% | [7] 10% | [8] 11% | [9] 20% | [10] 23% | [11] 0% | [12] 4% | [13] -5% | [14] 16% | [15] -7% | [16] 4% | [17] 5% | [18] 8% | [19] 12% | [20] -1% | [21] 2% | [22] 15.1% | [23] -7% | [24] 12% | [25] 0% | [26] -2% | [27] -1% | [28] 4% | [29] 5% | [30] 20% | [31] -2% | [32] 1% | [33] 13% | [34] -2% | [35] 9% | [36] 18% | [37] 5% | [38] 9% | [39] 16.5% | [40] 13% | [41] 16% | [42] 2% | [43] 17% | [44] 10% | [45] 2% | [46] 105% | [47] 0.58% | [48] -2% | [49] 9% | [50] 10% | [51] 12%
